Tests used:
[1] = Determination of partition coefficients between n-octanol and water; assay type: physicochemical; conditions: pH=7.4, logarithm to base 10
Experimental: The coefficients of partition between n-octanol and water were determined at pH=7.4 by conventional techniques and are expressed as logarithms to base 10 (Log P).

[2] = Determination of pKa (proton acidity constant of SO2-NH-CO-); assay type: physicochemical
Description: The pKa values represent the proton acidity constants of SO2 --NH--CO--.

[3] = target: T1, Na^+ /K^+ /2Cl^- cotransport (Oryctolagus cuniculus, UniProt P55015); experiment: Inhibition of Na+/K+/2Cl- cotransport, luminal membrane of the ascending branch of the loop of Henle in the nephron of perfused rabbits; conditions: in vivo
T1 construct: luminal membrane of the ascending branch of the loop of Henle in the nephron of perfused rabbits; from tissue; host or cells: rabbit nephron, ascending branch of the loop of Henle
T1 sequence (P55015 1-1099): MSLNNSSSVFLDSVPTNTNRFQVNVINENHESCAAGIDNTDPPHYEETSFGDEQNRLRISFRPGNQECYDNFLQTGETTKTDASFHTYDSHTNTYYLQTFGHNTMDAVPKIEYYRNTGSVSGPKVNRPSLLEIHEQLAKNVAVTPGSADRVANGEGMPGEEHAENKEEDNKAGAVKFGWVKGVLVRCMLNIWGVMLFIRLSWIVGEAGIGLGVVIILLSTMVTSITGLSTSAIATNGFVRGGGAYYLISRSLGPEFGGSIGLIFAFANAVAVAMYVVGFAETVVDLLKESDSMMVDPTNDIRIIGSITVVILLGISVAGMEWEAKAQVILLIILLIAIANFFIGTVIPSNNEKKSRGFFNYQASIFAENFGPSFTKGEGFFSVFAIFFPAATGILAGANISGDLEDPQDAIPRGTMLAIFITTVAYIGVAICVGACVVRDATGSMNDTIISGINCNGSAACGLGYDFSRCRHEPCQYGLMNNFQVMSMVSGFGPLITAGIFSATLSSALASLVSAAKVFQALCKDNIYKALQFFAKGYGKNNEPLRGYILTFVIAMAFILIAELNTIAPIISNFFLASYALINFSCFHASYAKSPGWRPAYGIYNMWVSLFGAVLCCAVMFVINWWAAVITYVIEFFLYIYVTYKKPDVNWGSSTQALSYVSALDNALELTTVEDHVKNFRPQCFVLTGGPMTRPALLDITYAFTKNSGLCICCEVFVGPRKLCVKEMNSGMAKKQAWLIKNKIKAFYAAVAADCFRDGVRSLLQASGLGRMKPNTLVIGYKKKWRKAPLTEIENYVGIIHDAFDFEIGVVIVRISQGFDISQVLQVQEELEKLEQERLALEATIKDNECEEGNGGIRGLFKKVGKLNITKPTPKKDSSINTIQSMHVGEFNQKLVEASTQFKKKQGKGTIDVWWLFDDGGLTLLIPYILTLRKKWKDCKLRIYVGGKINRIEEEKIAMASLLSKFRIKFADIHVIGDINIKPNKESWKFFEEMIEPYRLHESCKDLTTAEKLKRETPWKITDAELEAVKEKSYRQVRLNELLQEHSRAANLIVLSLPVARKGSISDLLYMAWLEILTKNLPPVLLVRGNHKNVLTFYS
Description: (§1) The 50% inhibitory concentration for Na^+ /K^+ /2Cl^- cotransport in vivo is decreased, in the case of the compound of Example 3, by about 60% relative to Torasemide (luminal membrane of the ascending branch of the loop of Henle in the nephron of perfused rabbits (Arzneim. Forsch. (1988) 38 (1a), 151-152)), and by 85% relative to Torasemide in the case of the compound of Example 10 (erythrocyte membrane in normotensive rats).

[4] = tested on: Cl^- passage in the kidneys; experiment: Inhibition of Cl- passage in the kidneys in vivo
Description: The 50% inhibitory concentration for Cl^- passage in the kidneys in vivo is decreased, in the case of the compound of Example 8 by about 50% relative to Torasemide and in the case of the compound of Example 18 by 75%.

[5] = target: T2, Na^+ /K^+ /2Cl^- cotransport (Rattus norvegicus, UniProt E9PTX9); experiment: Inhibition of Na+/K+/2Cl- cotransport, erythrocyte membrane in normotensive rats; assay type: in vivo
T2 construct: erythrocyte membrane in normotensive rats; from tissue; host or cells: rat erythrocytes
T2 sequence (E9PTX9 1-1203): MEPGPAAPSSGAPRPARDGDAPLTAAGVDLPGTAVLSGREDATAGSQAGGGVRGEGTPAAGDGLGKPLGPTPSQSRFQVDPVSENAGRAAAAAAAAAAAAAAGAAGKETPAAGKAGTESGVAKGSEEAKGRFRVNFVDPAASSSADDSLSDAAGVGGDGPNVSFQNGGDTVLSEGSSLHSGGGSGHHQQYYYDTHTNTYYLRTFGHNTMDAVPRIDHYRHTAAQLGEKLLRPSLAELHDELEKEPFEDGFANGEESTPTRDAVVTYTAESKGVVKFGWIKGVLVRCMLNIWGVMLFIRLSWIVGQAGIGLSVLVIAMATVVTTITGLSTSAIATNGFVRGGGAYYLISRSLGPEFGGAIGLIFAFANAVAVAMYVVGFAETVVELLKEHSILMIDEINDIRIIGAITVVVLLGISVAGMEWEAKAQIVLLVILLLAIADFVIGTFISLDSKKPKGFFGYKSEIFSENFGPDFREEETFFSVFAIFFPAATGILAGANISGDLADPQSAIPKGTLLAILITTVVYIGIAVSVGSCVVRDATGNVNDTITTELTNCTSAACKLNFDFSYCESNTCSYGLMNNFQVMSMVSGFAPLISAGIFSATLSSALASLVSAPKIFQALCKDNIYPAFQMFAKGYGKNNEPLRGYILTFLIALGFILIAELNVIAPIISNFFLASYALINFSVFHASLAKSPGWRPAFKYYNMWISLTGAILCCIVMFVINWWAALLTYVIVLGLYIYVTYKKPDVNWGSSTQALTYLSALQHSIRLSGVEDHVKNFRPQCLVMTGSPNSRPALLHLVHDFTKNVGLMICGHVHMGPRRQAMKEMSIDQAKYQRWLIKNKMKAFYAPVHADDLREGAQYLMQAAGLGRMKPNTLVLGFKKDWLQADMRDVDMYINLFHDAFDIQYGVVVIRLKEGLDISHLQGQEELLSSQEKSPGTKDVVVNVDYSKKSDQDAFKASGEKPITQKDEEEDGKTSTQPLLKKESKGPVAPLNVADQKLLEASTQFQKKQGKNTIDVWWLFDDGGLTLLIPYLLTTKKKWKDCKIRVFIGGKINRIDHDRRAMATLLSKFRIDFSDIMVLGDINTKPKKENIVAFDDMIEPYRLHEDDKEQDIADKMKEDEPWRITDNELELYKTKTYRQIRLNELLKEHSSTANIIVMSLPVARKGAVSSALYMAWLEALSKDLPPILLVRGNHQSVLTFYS
Description: as §1
This decrease of the 50% inhibitory concentration of the Torasemide for Na^+ /K^+ /[…] co-transport (erythrocyte membrane in normotensive rats) reachs even 90% in the case of the compound of Example 18.

## O=C(NC1CCCCC1)NS(=O)(=O)c1cnccc1NC1CCCCC1 [Example 1, N-((4(-cyclohexylamino)pyrid-3-yl)sulfonyl)-N'-cyclohexylurea]
[1]
  logD: 1.33
[2]
  pKa: 9.02

## O=C(NC1CCCCC1)NS(=O)(=O)c1cnccc1NC1CCCCCC1 [Example 2, N-((4-(cycloheptylamino)pyrid-3-yl)sulfonyl)-N'-cyclohexylurea]
[1]
  logD: 1.67
[2]
  pKa: 9.39

## O=C(NC1CCCCCCC1)NS(=O)(=O)c1cnccc1NC1CCCCCCC1 [Example 3, N-((4-(cyclooctylamino)pyrid-3-yl)sulfonyl-N'-cyclooctylurea nitrate]
[1]
  logD: 2.7
[3]
  decrease of the 50% inhibitory concentration for Na+/K+/2Cl- cotransport relative to Torasemide: about 60%
[2]
  pKa: 7.74

## O=C(NC1CCCCCCC1)NS(=O)(=O)c1cnccc1NC1CCCCC1 [Example 7, N-((4-(cyclohexylamino)pyrid-3-yl)sulfonyl)-N'-cyclooctylurea]
[1]
  logD: 2.07
[2]
  pKa: 9.13

## O=C(NC1CCCCCC1)NS(=O)(=O)c1cnccc1NC1CCCCCCC1 [Example 8, N-((4-(cyclooctylamino)pyrid-3-yl)sulfonyl)-N'-cycloheptylurea]
[1]
  logD: 2.45
[4]
  decrease of the 50% inhibitory concentration for Cl- passage in the kidneys relative to Torasemide: about 50%
[2]
  pKa: 9.15

## O=C(NC1CCCCC1)NS(=O)(=O)c1cnccc1NC1CCCCCCC1 [Example 10, N-((4-(cyclooctylamino)pyrid-3-yl)sulfonyl)-N'-cyclohexylurea]
[1]
  logD: 2.06
[5]
  decrease of the 50% inhibitory concentration for Na+/K+/2Cl- cotransport relative to Torasemide: 85%
[2]
  pKa: 8.95

## O=C(NC1CCCCCC1)NS(=O)(=O)c1cnccc1NC1CCCCCC1 [Example 18, N-((4-(cycloheptylamino)pyrid-3-yl)sulfonyl)-N'-cycloheptylurea]
[5]
  decrease of the 50% inhibitory concentration for Na+/K+/2Cl- cotransport relative to Torasemide: 90%
[4]
  decrease of the 50% inhibitory concentration for Cl- passage in the kidneys relative to Torasemide: 75%

## Cc1cccc(Nc2ccncc2S(=O)(=O)NC(=O)NC(C)C)c1 [Torasemide, reference compound]
[1]
  logD: 0.449
[2]
  pKa: 6.82

— patent US5166162A, “Pyridylsulfonylurea and pyridylsulfonylthiourea compounds” (Adir et Compagnie, priority 1990, dated 1992)
